Laboratory results reported in patent US9205077B2, “2-alkoxy-substituted dicyanopyridines and their use” (Bayer Intellectual Property GmbH, priority 2008, dated 2015).

Key:
Type in all cases: cell-based
adenosine A1 receptor = biological target: T1, adenosine A1 receptor (Homo sapiens, UniProt P30542); assay: Indirect determination of the adenosine agonism by way of gene expression (luciferase reporter), A1 cells; settings: CHO cells stably transfected with A1 receptor cDNA; 1 μM forskolin; 50% inhibition of luciferase response
T1 construct: expressed in transfected cells; host or cells: CHO (Chinese Hamster Ovary) permanent line, stably transfected
T1 sequence (P30542 1-326): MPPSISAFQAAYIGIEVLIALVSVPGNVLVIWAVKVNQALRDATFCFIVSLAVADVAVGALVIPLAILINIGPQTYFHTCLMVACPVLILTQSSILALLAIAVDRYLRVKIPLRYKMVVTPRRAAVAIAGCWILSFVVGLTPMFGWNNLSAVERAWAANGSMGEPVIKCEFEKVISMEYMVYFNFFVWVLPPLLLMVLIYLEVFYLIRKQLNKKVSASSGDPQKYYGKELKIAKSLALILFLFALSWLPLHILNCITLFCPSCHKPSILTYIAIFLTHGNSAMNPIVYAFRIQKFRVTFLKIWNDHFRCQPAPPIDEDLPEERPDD
Excerpt: (§1) B-1. Indirect Determination of the Adenosine Agonism by Way of Gene Expression
(§2) Cells of the CHO (Chinese Hamster Ovary) permanent line are transfected stably with the cDNA for the adenosine receptor subtypes A1, A2a and A2b. The adenosine A1 receptors are coupled to the adenylate cyclase by way of Gi proteins, while the adenosine A2a and A2b receptors are coupled by way of Gs proteins. In correspondence with this, the formation of cAMP in the cell is inhibited or stimulated, respectively. After that, expression of the luciferase is modulated by way of a cAMP-dependent promoter. The luciferase test is optimized, with the aim of high sensitivity and reproducibility, low variance and good suitability for implementation on a robot system, by varying several test parameters, such as cell density, duration of the growth phase and the test incubation, forskolin concentration and medium composition. The following test protocol is used for pharmacologically characterizing cells and for the robot-assisted substance screening:
(§3) The stock cultures are grown, at 37° C. and under 5% CO2, in DMEM/F12 medium containing 10% FCS (fetal calf serum) and in each case split 1:10 after 2-3 days. Test cultures are seeded in 384-well plates with 2000 cells per well and grown at 37° C. for approx. 48 hours. The medium is then replaced with a physiological sodium chloride solution (130 mM sodium chloride, 5 mM potassium chloride, 2 mM calcium chloride, 20 mM HEPES, 1 mM magnesium chloride hexahydrate, 5 mM sodium bicarbonate, pH 7.4). The substances to be tested, which are dissolved in DMSO, are pipetted into the test cultures (maximum final concentration of DMSO in the test mixture: 0.5%) in a dilution series of from 5×10^−11 M to 3×10^−6 M (final concentration). 10 minutes later, forskolin is added to the A1 cells and all the cultures are subsequently incubated at 37° C. for four hours. After that, 35 μl of a solution which is composed of 50% lysis reagent (30 mM disodium hydrogenphosphate, 10% glycerol, 3% TritonX100, 25 mM TrisHCl, 2 mM dithiotreitol (DTT), pH 7.8) and 50% luciferase substrate solution (2.5 mM ATP, 0.5 mM luciferin, 0.1 mM coenzyme A, 10 mM tricine, 1.35 mM magnesium sulphate, 15 mM DTT, pH 7.8) are added to the test cultures, which are shaken for approx. 1 minute and the luciferase activity is measured using a camera system. The EC50 values are determined, i.e., the concentrations at which 50% of the luciferase response is inhibited in the case of the A1 cell, and, respectively, 50% of the maximum stimulation with the corresponding substance is achieved in the case of the A2b and A2a cells. […] Pharmacol., 357, 1-9 (1998)).

adenosine A2b receptor = biological target: T2, adenosine A2b receptor (Homo sapiens, UniProt P29275); assay: Indirect determination of the adenosine agonism by way of gene expression (luciferase reporter), A2b cells; settings: CHO cells stably transfected with A2b receptor cDNA; 50% of maximum stimulation of luciferase
T2 construct: expressed in transfected cells; host or cells: CHO (Chinese Hamster Ovary) permanent line, stably transfected
T2 sequence (P29275 1-332): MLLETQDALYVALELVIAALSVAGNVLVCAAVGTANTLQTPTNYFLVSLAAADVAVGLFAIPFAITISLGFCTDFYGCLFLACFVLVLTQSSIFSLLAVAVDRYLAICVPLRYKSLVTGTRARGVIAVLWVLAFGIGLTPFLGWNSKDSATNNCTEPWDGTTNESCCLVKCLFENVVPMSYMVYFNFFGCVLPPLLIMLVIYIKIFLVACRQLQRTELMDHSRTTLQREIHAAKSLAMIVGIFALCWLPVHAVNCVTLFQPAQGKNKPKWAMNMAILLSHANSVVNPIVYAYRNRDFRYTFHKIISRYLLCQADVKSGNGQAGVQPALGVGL
Excerpt: as §1, §2, §3

adenosine A2a receptor = biological target: T3, adenosine A2a receptor (Homo sapiens, UniProt P29274); assay: Indirect determination of the adenosine agonism by way of gene expression (luciferase reporter), A2a cells; settings: CHO cells stably transfected with A2a receptor cDNA; 50% of maximum stimulation of luciferase
T3 construct: expressed in transfected cells; host or cells: CHO (Chinese Hamster Ovary) permanent line, stably transfected
T3 sequence (P29274 whole entry): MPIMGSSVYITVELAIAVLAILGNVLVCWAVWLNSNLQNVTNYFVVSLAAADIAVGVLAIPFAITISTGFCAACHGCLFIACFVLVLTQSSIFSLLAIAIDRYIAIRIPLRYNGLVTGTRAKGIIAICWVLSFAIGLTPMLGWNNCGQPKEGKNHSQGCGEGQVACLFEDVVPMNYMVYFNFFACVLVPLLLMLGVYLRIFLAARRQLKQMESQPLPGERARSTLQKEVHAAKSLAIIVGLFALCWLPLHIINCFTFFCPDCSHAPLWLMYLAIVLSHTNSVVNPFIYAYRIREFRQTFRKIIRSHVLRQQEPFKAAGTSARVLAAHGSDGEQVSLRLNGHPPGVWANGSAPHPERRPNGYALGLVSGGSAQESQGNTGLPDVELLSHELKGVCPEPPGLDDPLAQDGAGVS
Excerpt: as §1, §2, §3

An EC50 (adenosine A1 receptor) of 4.8 nM, an EC50 (adenosine A2b receptor) greater than 3000 nM and an EC50 (adenosine A2a receptor) greater than 3000 nM were found for `CCOc1nc(SCc2coc(-c3ccc(Cl)cc3)n2)c(C#N)c(-c2ccc(OCCO)cc2)c1C#N` [Example 15, 2-({[2-(4-Chlorophenyl)-1,3-oxazol-4-yl]methyl}sulphanyl)-6-ethoxy-4-[4-(2-hydroxyethoxy)-phenyl]pyridine-3,5-dicarbonitrile] in this work.

An EC50 (adenosine A1 receptor) of 0.7 nM, an EC50 (adenosine A2b receptor) of 534 nM and an EC50 (adenosine A2a receptor) greater than 3000 nM were found for `N#Cc1c(OCCCO)nc(SCc2csc(-c3ccc(Cl)cc3)n2)c(C#N)c1-c1ccccc1` [Example 2, 2-({[2-(4-Chlorophenyl)-1,3-thiazol-4-yl]methyl}sulphanyl)-6-(3-hydroxypropoxy)-4-phenylpyridine-3,5-dicarbonitrile] in this work.

An EC50 (adenosine A1 receptor) of 0.8 nM, an EC50 (adenosine A2b receptor) greater than 3000 nM and an EC50 (adenosine A2a receptor) of 527 nM were found for `CCOc1nc(SCc2csc(-c3ccc(Cl)cc3)n2)c(C#N)c(-c2ccc(OCCO)cc2)c1C#N` [Example 16, 2-({[2-(4-Chlorophenyl)-1,3-thiazol-4-yl]methyl}sulphanyl)-6-ethoxy-4-[4-(2-hydroxyethoxy)-phenyl]pyridine-3,5-dicarbonitrile] in this work.

An EC50 (adenosine A1 receptor) of 2.1 nM, an EC50 (adenosine A2b receptor) of 142 nM and an EC50 (adenosine A2a receptor) of 1260 nM were found for `COc1nc(SCc2csc(-c3ccc(Cl)cc3)n2)c(C#N)c(-c2ccc(OC[C@@H](O)CO)cc2)c1C#N` [Example 22, 2-({[2-(4-Chlorophenyl)-1,3-thiazol-4-yl]methyl}sulphanyl)-4-(4-{[(2S)-2,3-dihydroxypropyl]-oxy}phenyl)-6-methoxypyridine-3,5-dicarbonitrile] in this work.

An EC50 (adenosine A1 receptor) of 1.2 nM, an EC50 (adenosine A2b receptor) greater than 3000 nM and an EC50 (adenosine A2a receptor) of 547 nM were found for `COc1nc(SCc2cccnc2)c(C#N)c(-c2ccc(OCCO)cc2)c1C#N` [Example 12, 4-[4-(2-Hydroxyethoxy)phenyl]-2-methoxy-6-[(pyridin-3-ylmethyl)sulphanyl]pyridine-3,5-dicarbonitrile] in this work.

An EC50 (adenosine A1 receptor) of 1.3 nM, an EC50 (adenosine A2b receptor) greater than 3000 nM and an EC50 (adenosine A2a receptor) greater than 3000 nM were found for `CCCOc1nc(SCc2csc(-c3ccc(Cl)cc3)n2)c(C#N)c(-c2ccccc2)c1C#N` [Example 1, 2-({[2-(4-Chlorophenyl)-1,3-thiazol-4-yl]methyl}sulphanyl)-4-phenyl-6-propoxypyridine-3,5-dicarbonitrile] in this work.

An EC50 (adenosine A1 receptor) of 0.5 nM, an EC50 (adenosine A2b receptor) of 177 nM and an EC50 (adenosine A2a receptor) of 685 nM were found for `N#Cc1c(OCCO)nc(SCc2csc(-c3ccc(Cl)cc3)n2)c(C#N)c1-c1ccc(OCCO)cc1` [Example 19] in this work.

An EC50 (adenosine A1 receptor) of 0.3 nM, an EC50 (adenosine A2b receptor) of 105 nM and an EC50 (adenosine A2a receptor) of 1220 nM were found for `COc1nc(SCc2csc(-c3ccc(Cl)cc3)n2)c(C#N)c(-c2ccc(OCCO)cc2)c1C#N` [Example 8, 2-({[2-(4-Chlorophenyl)-1,3-thiazol-4-yl]methyl}sulphanyl)-4-[4-(2-hydroxyethoxy)phenyl]-6-methoxypyridine-3,5-dicarbonitrile] in this work.

An EC50 (adenosine A1 receptor) of 73.2 nM, an EC50 (adenosine A2b receptor) of 28.6 nM and an EC50 (adenosine A2a receptor) greater than 3000 nM were found for `COc1nc(SCc2c[nH]cn2)c(C#N)c(-c2ccc(OCCO)cc2)c1C#N` [Example 21, Formic acid 4-[4-(2-hydroxyethoxy)phenyl]-2-[(1H-imidazol-4-ylmethyl)sulphanyl]-6-methoxypyridine-3,5-dicarbonitrile (1:1)] in this work.

An EC50 (adenosine A1 receptor) of 5.7 nM, an EC50 (adenosine A2b receptor) greater than 3000 nM and an EC50 (adenosine A2a receptor) greater than 3000 nM were found for `N#Cc1c(OCCCO)nc(SCc2csc(-c3ccc(Cl)cc3)n2)c(C#N)c1-c1cncs1` [Example 6, 2-({[2-(4-Chlorophenyl)-1,3-thiazol-4-yl]methyl}sulphanyl)-6-(3-hydroxypropoxy)-4-(1,3-thiazol-5-yl)pyridine-3,5-dicarbonitrile] in this work.

An EC50 (adenosine A1 receptor) of 0.6 nM, an EC50 (adenosine A2b receptor) of 263 nM and an EC50 (adenosine A2a receptor) of 689 nM were found for `N#Cc1c(OCCCO)nc(SCc2csc(-c3ccc(Cl)cc3)n2)c(C#N)c1-c1ccc(OCCO)cc1` [Example 3, 2-({[2-(4-Chlorophenyl)-1,3-thiazol-4-yl]methyl}sulphanyl)-4-[4-(2-hydroxyethoxy)phenyl]-6-(3-hydroxypropoxy)pyridine-3,5-dicarbonitrile] in this work.

An EC50 (adenosine A1 receptor) of 0.8 nM, an EC50 (adenosine A2b receptor) greater than 3000 nM and an EC50 (adenosine A2a receptor) of 1110 nM were found for `COc1cccc(CSc2nc(OC)c(C#N)c(-c3ccc(OCCO)cc3)c2C#N)c1` [Example 11, 4-[4-(2-Hydroxyethoxy)phenyl]-2-methoxy-6-[(3-methoxybenzyl)sulphanyl]pyridine-3,5-dicarbonitrile] in this work.

An EC50 (adenosine A1 receptor) of 0.3 nM, an EC50 (adenosine A2b receptor) greater than 3000 nM and an EC50 (adenosine A2a receptor) of 1740 nM were found for `CNC(=O)c1cc(CSc2nc(OCCO)c(C#N)c(-c3ccccc3)c2C#N)ccn1` [Example 18, 4-({[3,5-Dicyano-6-(2-hydroxyethoxy)-4-phenylpyridin-2-yl]thio}methyl)-N-methylpyridine-2-carboxamide] in this work.
